Laboratory results: patent publication US5919781A, “Use of NK-1 receptor antogonists for treating substance use disorders” (Merck Sharp & Dohme Ltd., priority 1996, dated 1999)
Read-outs that look alike come from different tables or passages of the source.

How the values were obtained:
[1] = system: cisplatin-induced emesis in ferrets; test: Ferret emesis (Assay 3), inhibition of cisplatin-induced emesis; assay type: in vivo; conditions: Mustela putorius, po, 60 minutes before cisplatin 10 mg/kg i.v.; 4 hours observation; read-out: ferret emesis: ID90
Description: ASSAY 3: Ferret Emesis […] Ten minutes later they are fed with approximately 100 g of tinned cat food. At 60 minutes following oral dosing, cisplatin (10 mg/kg) is given i.v. via a jugular vein catheter inserted under a brief period of halothane anaesthesia. The catheter is then removed, the jugular vein ligated and the skin incision closed. The ferrets recover rapidly from the anaesthetic and are mobile within 10-20 minutes. The animals are observed continuously during recovery from the anaesthetic and for 4 hours following the cisplatin injection. The numbers of retches and vomits occurring during the 4 hours after cisplatin administration are recorded by trained observers.

NK-1 receptor = molecular target: T1, NK-1 receptor (Meriones unguiculatus, UniProt Q5DUB1); test: Gerbil foot-tapping (Assay 2), inhibition of foot tapping induced by central infusion of NK-1 receptor agonist GR73632; assay type: in vivo, Mongolian gerbils; conditions: iv
T1 construct: male or female Mongolian gerbils (35-70 g) are anaesthetised; from tissue; host or cells: brain of the living Mongolian gerbil (in vivo, agonist infused intracerebroventricularly)
T1 sequence (Q5DUB1 whole entry, the tested form may be a part): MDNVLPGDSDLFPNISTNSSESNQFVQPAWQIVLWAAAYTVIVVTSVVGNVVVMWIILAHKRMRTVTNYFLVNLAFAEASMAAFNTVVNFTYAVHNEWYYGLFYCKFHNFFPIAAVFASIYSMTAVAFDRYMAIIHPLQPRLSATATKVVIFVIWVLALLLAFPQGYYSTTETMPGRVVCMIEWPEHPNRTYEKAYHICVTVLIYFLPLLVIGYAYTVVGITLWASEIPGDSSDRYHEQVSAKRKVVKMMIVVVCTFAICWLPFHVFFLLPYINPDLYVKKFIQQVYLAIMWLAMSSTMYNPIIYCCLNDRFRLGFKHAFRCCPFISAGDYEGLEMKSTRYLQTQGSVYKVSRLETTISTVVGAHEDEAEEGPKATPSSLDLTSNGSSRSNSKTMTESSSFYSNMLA
Source text: ASSAY 2: Gerbil Foot-Tapping
CNS-penetrant NK-1 receptor antagonists for use in the present invention can be identified by their ability to inhibit foot tapping in gerbils induced by anxiogenic agents (such as pentagastrin) or central infusion of NK-1 receptor agonists such as GR73632, or caused by aversive stimulation such as foot shock or single housing, based on the method of Rupniak & Williams, Eur. J. Pharmacol., 1994, 265, 179.
Briefly, male or female Mongolian gerbils (35-70 g) are anaesthetised by inhalation of an isoflurane/oxygen mixture to permit exposure of the jugular vein in order to permit administration of test compounds or vehicle in an injection volume of 5 ml/kg i.v. Alternatively, test compounds may be administered orally or by subcutaneous or intraperitoneal routes. A skin incision is then made in the midline of the scalp to expose the skull. […]

[2] = system: morphine withdrawal response in guinea-pigs; conditions: systemic administration, only high doses active, Chahl & Johnston, 1992; cited from earlier work
[3] = system: naloxone-precipitated withdrawal signs in rats; conditions: central (i.c.v.) injection; rats receiving morphine for five days; Maldonado et al, 1993; cited from earlier work

C[C@@H](O[C@H]1OCCN(Cc2n[nH]c(=O)[nH]2)[C@H]1c1ccc(F)cc1)c1cc(C(F)(F)F)cc(C(F)(F)F)c1 [2-(R)-(1-(R)-(3,5-bis(trifluoromethyl)phenyl)ethoxy)-3-(S)-(4-fluorophenyl)-4-(3-(5-oxo-1H,4H-1,2,4-triazolo)methyl)morpholine]
ED90 [1]: < 3 mg/kg | ED50 (NK-1 receptor; 5 min, i.v., 5 mins., administered immediately prior to GR73632 challenge, read-out: gerbil foot-tapping (5 mins.): ID50): 0.36 mg/kg | ED50 (NK-1 receptor; 24 hours prior to central NK1 agonist challenge, read-out: gerbil foot-tapping (24 hrs.): ID50): 0.33 mg/kg

COc1ccccc1CNC1C2CCN(CC2)C1C(c1ccccc1)c1ccccc1 (centres unmarked) [CP-96,345]
doses active in blocking the withdrawal response [2]: 20 mg/kg

COc1ccccc1CC(=N)N1CC2C(=O)CCC(c3ccccc3)(c3ccccc3)C2C1 (centres unmarked) [RP67580]
attenuation of naloxone-precipitated withdrawal signs [3]: could attenuate naloxone-precipitated withdrawal signs
